From ChEMBL document CHEMBL5226340, “Chemical Biology of Sortase A Inhibition: A Gateway to Anti-infective Therapeutic Agents” (J Med Chem, 2021)
pIC50: −log10 of the molar value. Converted amounts (≈) assume the structure as drawn.

Legend:
Sortase A [1] = target: T1, Sortase A (Staphylococcus aureus, UniProt Q9S446); experiment: Inhibition of recombinant Staphylococcus aureus ATCC 6538p SrtA expressed in Escherichia coli TOP10 using Dabcyl-QALPETGEE-Edans as substrate incubated for 1 hr by fluorometric analysis
T1 sequence (Q9S446 whole entry): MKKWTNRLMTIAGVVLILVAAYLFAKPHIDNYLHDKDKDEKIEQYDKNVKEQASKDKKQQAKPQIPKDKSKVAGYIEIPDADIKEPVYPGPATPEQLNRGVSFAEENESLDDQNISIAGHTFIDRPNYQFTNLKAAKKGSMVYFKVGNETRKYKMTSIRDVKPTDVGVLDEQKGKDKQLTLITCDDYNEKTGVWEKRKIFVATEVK

[2] = target: T2, Sortase A (Staphylococcus aureus) (UniProt Q9S446); experiment: Binding affinity to Staphylococcus aureus SrtA assessed as kinact/ki
T2 sequence (whole entry): T1 sequence (Q9S446 whole entry)

Staphylococcus aureus = experiment: Antibacterial activity against Staphylococcus aureus; format: functional
Sortase A [3] = target: T1, Sortase A; experiment: Inhibition of C-terminal 6His-tagged recombinant Staphylococcus aureus SrtA with 1 to 59 residues truncated from N-terminus expressed in Escherichia coli BL21 (DE3) using dabcyl-QALPETGEE-edans as substrate preincubated for 1 hr followed by substrate addition and measured for 1 hr by FRET assay
Sortase A [4] = target: T1, Sortase A; experiment: Inhibition of Staphylococcus aureus SrtA
Sortase A [5] = target: T1, Sortase A; experiment: Inhibition of Staphylococcus aureus SrtA (60 to 206 residues) using Abz-LPETG-Dap(Dnp)-NH2 as substrate incubated for 1 hr by FRET assay
Sortase A [6] = target: T1, Sortase A; experiment: Inhibition of Staphylococcus aureus SrtA catalytic domain (60 to 206 residues) using Abz-LPETGDap(Dnp)-NH2 as substrate preincubated for 1 hr followed by substrate addition and measured immediately by FRET assay
Sortase A [7] = target: T1, Sortase A; experiment: Inhibition of Staphylococcus aureus SrtA using EDANS-Dabcyl as substrate by FRET assay

| Structure (SMILES) | Ratio [2] | MIC (Staphylococcus aureus) | also measured |
| --- | --- | --- | --- |
| O=c1c(O)c(-c2ccc(O)c(O)c2)oc2cc(O)cc(O)c12 [QUERCETIN] | – | – | pIC50 (Sortase A [1]): 4.28 |
| CCSSc1ccccc1C(=O)NCC(=O)NCC1CCCCC1 | 7.13 10^4/M/min | – | – |
| CC(=O)/C(=N/Nc1ccc([N+](=O)[O-])cc1)C(=O)O | – | > 270 µM | pIC50 (Sortase A [3]): 4.24 |
| CCSSc1ccccc1C(=O)NCC(=O)N(C1CCCCC1)C1CCCCC1 | 6.39 10^4/M/min | – | – |
| O=C(O)/C=C/c1ccc(O)c(O)c1 [CAFFEIC ACID] | – | > 5750 µM | pIC50 (Sortase A [4]): 3.07 |
| O=[N+]([O-])c1ccc(C2Nc3cccc4cccc(c34)N2)cc1 | – | – | pIC50 (Sortase A [5]): 4.10 |
| COc1cc(/C=C/C(=O)CC(=O)/C=C/c2ccc(O)c(OC)c2)ccc1O [CURCUMIN] | – | > 543 µM | – |
| CCn1nc(C)cc1C(=O)/C(=N/Nc1ccc(Cl)c(Cl)c1)C(=O)O | – | – | pIC50 (Sortase A [3]): < 3.70 |
| CCOc1c(SSc2cnn(-c3cccc(F)c3)c(=O)c2OCC)cnn(-c2cccc(F)c2)c1=O | – | – | pIC50 (Sortase A [6]): 6.80 |
| O=c1c(OCCCO)c(SSc2cnn(-c3ccccc3)c(=O)c2OCCCO)cnn1-c1ccccc1 | – | – | pIC50 (Sortase A [6]): 6.08 |
| CCSSc1ccccc1C(=O)N[C@H](CC(=O)O)C(=O)Nc1cccc(Oc2ccccc2)c1 | 8.21 10^4/M/min | – | – |
| O=c1cc(CO)oc(C(Nc2ccccn2)c2ccsc2)c1O (stereo unspecified) | 0.7 10^3/M/min | > 1550 µM | – |
| COc1ccc(C(Nc2ccccn2)c2oc(CO)cc(=O)c2O)cc1 (stereo unspecified) | 1.8 10^3/M/min | > 1440 µM | – |
| O=C(/C=C/c1ccc(O)c(O)c1)O[C@@H]1C[C@](O)(C(=O)O)C[C@@H](O)[C@H]1O [CHLOROGENIC ACID] | – | 2900 µM (≈ 1030 µg/mL) | pIC50 (Sortase A [7]): 4.02 |
| O=c1c(OCCO)c(SSc2cnn(-c3ccccc3)c(=O)c2OCCO)cnn1-c1ccccc1 | – | – | pIC50 (Sortase A [6]): 6.66 |
| COc1ccc(-c2cc(=O)c3c(O)cc(O)cc3o2)cc1 [ACACETIN] | – | > 3600 µM | pIC50 (Sortase A [4]): 3.89 |
| O=C(/C=C/c1ccc(O)cc1)CC(=O)/C=C/c1ccc(O)cc1 [BISDEMETHOXYCURCUMIN] | – | > 543 µM | pIC50 (Sortase A [7]): 3.99 |
| C[C@@H]1O[C@@H](OC2=C(c3ccc(O)c(O)c3)Oc3cc(O)cc(O)c3[C@@H]2O)[C@H](O)[C@H](O)[C@H]1O | – | – | pIC50 (Sortase A [7]): 4.14 |

| Structure (SMILES) | Ratio [2] | MIC (Staphylococcus aureus) | also measured |
| --- | --- | --- | --- |
| Clc1ccc(C2Nc3cccc4cccc(c34)N2)cc1 | – | – | pIC50 (Sortase A [5]): 4.05 |
| CC(=O)/C(=N/Nc1ccc(Cl)c(Cl)c1)C(=O)O | – | > 270 µM | pIC50 (Sortase A [3]): 4.30 |
| O=c1c(OCCCO)c(SSc2cnn(-c3cccc(F)c3)c(=O)c2OCCCO)cnn1-c1cccc(F)c1 | 1.8 10^4/M/min | – | pIC50 (Sortase A [6]): 7.70 |
| O=C(O)COc1ccccc1C1Nc2cccc3cccc(c23)N1 | – | – | pIC50 (Sortase A [5]): 4.33 |
| O=C1N[C@H](c2c[nH]c3cc(Br)ccc23)CN=C1c1c[nH]c2ccccc12 | – | – | pIC50 (Sortase A [7]): 4.08 |
| O=c1cc(CO)oc(C(Nc2ccccn2)c2ccc(C(F)(F)F)cc2)c1O (stereo unspecified) | 1.7 10^3/M/min | > 1300 µM | – |
| COc1c(O)c2c(c3c1O[C@@]1(O)C(C)(C)[C@H](C)O[C@@]31O)C(=O)C(C)=CC2=O | – | – | pIC50 (Sortase A [4]): 4.63 |
| O=c1cc(CO)oc(C(Nc2ccccn2)c2ccc(F)cc2)c1O (stereo unspecified) | 1.4 10^3/M/min | > 1580 µM | – |
| CCOc1c(SSc2cnn(-c3cccc(OC)c3)c(=O)c2OCC)cnn(-c2cccc(OC)c2)c1=O | – | – | pIC50 (Sortase A [6]): 6.21 |
| COc1cc(/C=C/C(=O)CC(=O)/C=C/c2ccc(O)cc2)ccc1O | – | > 543 µM | pIC50 (Sortase A [7]): 4.15 |
| O=c1c(O)c(-c2cc(O)c(O)c(O)c2)oc2cc(O)cc(O)c12 [MYRICETIN] | – | – | pIC50 (Sortase A [1]): 4.36 |
| CCOc1c(SSc2cnn(-c3cccc(C(=N)N)c3)c(=O)c2OCC)cnn(-c2cccc(C(=N)N)c2)c1=O | 3.6 10^4/M/min | – | pIC50 (Sortase A [6]): 6.27 |
| CCOc1c(S)cnn(-c2ccccc2)c1=O | – | – | pIC50 (Sortase A [6]): 4.46 |
| O=c1cc(CO)oc(C(Nc2ccccn2)c2cccc(F)c2)c1O (stereo unspecified) | 2.4 10^3/M/min | > 1580 µM | – |
| CCSSc1ccccc1C(=O)NCC(=O)Nc1cccc(Oc2ccccc2)c1 | 7.24 10^4/M/min | – | – |
| CCSSc1ccccc1C(=O)NCC(=O)Nc1ccc(F)cc1 | 6.14 10^4/M/min | – | – |
| O=c1c(OCCO)c(SSc2cnn(-c3cccc(F)c3)c(=O)c2OCCO)cnn1-c1cccc(F)c1 | – | – | pIC50 (Sortase A [6]): 6.39 |
| COc1cc(/C=C/C(=O)O)ccc1O [FERULATE] | – | > 5750 µM | pIC50 (Sortase A [4]): 2.88 |
